Measurements reported in patent publication EP4745135A1 (Gluetacs Therapeutics (Shanghai) Co., Ltd., priority 2023, dated 2025).

What was measured:
CK1α = target: T1, CK1α (Homo sapiens, UniProt P48729+Q96SW2); assay: Western blot, degradation of substrate protein in hPBMCs; format: cell-based
T1 construct: effects of the compounds of the present disclosure on the expression of target proteins in cells; endogenous in cells; host or cells: human PBMCs (Milecell Biotechnologies)

IKZF1 = target: T2, IKZF1 (Homo sapiens, UniProt Q13422+Q96SW2); assay: as above; format: cell-based
T2 construct: effects of the compounds of the present disclosure on the expression of target proteins in cells; endogenous in cells; host or cells: human PBMCs (Milecell Biotechnologies)
T2 sequence (Q13422 whole entry): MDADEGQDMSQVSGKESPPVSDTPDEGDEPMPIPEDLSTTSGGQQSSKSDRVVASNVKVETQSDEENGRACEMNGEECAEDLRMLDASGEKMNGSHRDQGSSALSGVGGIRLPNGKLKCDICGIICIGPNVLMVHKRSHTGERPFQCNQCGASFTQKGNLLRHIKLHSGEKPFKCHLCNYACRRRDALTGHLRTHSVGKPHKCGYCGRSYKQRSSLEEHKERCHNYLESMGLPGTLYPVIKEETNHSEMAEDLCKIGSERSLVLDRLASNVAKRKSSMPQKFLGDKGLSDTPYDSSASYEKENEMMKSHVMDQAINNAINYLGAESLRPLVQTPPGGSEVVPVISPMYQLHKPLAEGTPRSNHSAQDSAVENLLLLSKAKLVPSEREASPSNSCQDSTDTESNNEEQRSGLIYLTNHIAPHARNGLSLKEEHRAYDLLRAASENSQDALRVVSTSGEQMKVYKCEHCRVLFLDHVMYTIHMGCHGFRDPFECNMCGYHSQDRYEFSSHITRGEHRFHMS
T2 sequence (Q96SW2 whole entry): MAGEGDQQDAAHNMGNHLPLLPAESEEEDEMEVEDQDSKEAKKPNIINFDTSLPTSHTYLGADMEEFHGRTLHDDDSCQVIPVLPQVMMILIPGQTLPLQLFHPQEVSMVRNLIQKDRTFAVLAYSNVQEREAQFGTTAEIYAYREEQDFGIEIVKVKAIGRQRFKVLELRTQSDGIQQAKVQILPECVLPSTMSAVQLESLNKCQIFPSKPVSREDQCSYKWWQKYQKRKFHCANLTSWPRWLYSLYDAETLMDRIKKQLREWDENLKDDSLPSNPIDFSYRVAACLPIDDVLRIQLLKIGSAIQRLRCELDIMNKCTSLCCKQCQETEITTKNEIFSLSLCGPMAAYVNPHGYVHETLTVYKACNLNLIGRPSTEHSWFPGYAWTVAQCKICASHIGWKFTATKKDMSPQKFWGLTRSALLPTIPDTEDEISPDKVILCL
T2 sequence (Q16531 whole entry partner): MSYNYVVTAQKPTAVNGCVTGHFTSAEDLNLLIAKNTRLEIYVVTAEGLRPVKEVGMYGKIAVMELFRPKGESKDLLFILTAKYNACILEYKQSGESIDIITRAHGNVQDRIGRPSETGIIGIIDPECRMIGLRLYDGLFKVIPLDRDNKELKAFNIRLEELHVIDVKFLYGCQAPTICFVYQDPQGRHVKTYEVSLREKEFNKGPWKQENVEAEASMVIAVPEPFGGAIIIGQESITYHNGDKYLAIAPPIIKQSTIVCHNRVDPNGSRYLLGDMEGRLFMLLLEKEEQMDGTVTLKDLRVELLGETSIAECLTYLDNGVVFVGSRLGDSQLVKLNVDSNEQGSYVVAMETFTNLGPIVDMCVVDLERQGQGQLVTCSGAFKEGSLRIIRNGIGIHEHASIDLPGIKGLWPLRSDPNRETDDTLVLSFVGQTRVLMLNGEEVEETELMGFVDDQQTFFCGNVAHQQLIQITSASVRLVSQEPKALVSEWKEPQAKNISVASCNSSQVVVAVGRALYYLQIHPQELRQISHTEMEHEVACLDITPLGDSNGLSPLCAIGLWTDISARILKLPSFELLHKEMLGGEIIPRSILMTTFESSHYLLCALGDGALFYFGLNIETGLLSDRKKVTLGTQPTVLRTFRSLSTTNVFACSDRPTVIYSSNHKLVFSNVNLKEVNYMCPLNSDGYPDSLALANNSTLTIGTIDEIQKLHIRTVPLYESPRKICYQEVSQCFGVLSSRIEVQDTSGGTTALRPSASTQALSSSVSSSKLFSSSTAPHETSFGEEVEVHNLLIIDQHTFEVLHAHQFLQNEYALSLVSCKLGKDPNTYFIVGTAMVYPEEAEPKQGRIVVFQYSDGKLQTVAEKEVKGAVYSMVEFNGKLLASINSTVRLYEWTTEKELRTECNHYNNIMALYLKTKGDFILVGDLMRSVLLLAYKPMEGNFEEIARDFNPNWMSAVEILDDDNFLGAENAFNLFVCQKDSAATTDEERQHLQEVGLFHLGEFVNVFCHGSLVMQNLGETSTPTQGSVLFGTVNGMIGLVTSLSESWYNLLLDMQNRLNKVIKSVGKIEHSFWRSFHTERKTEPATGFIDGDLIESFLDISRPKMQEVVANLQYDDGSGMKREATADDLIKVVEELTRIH

IKZF2 = target: T3, IKZF2 (Homo sapiens, UniProt Q96SW2+Q9UKS7); assay: as above; format: cell-based
T3 construct: effects of the compounds of the present disclosure on the expression of target proteins in cells; endogenous in cells; host or cells: human PBMCs (Milecell Biotechnologies)
T3 sequence (Q9UKS7 whole entry): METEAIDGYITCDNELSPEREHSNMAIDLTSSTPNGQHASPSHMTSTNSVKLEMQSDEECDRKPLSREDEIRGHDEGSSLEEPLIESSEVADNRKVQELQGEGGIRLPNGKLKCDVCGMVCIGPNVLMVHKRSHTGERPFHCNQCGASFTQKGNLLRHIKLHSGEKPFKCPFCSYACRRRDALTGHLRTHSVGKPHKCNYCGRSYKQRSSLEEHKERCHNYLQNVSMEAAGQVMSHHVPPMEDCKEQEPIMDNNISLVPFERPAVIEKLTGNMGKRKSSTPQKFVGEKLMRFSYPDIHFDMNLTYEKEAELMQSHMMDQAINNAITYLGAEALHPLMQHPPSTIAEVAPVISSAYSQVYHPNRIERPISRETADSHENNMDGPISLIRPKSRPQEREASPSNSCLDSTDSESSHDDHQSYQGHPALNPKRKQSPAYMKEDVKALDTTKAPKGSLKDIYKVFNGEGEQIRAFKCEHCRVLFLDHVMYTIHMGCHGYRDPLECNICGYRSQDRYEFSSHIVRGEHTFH
T3 sequence (Q96SW2 whole entry): as the sequence (Q96SW2 whole entry) above
T3 sequence (Q16531 whole entry partner): as the sequence (Q16531 whole entry partner) above

IKZF3 = target: T4, IKZF3 (Homo sapiens, UniProt Q96SW2+Q9UKT9); assay: as above; format: cell-based
T4 construct: effects of the compounds of the present disclosure on the expression of target proteins in cells; endogenous in cells; host or cells: human PBMCs (Milecell Biotechnologies)
T4 sequence (Q9UKT9 whole entry): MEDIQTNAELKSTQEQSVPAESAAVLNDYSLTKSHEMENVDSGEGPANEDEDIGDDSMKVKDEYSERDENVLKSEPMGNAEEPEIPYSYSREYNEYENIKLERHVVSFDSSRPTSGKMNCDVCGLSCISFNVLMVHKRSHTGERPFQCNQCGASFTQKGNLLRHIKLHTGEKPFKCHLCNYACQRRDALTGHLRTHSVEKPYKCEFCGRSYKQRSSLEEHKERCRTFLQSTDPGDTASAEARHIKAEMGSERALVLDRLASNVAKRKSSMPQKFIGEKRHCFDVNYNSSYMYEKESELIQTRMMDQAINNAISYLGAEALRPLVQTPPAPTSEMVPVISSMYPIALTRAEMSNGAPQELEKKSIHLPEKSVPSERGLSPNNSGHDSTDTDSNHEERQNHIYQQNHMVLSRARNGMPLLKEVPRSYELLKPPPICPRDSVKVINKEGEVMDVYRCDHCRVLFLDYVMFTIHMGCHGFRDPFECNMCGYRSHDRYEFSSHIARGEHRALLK
T4 sequence (Q96SW2 whole entry): as the sequence (Q96SW2 whole entry) above
T4 sequence (Q16531 whole entry partner): as the sequence (Q16531 whole entry partner) above

WEE1 = target: T5, WEE1 (Homo sapiens, UniProt P30291+Q96SW2); assay: as above; format: cell-based
T5 construct: effects of the compounds of the present disclosure on the expression of target proteins in cells; endogenous in cells; host or cells: human PBMCs (Milecell Biotechnologies)
T5 sequence (P30291 whole entry): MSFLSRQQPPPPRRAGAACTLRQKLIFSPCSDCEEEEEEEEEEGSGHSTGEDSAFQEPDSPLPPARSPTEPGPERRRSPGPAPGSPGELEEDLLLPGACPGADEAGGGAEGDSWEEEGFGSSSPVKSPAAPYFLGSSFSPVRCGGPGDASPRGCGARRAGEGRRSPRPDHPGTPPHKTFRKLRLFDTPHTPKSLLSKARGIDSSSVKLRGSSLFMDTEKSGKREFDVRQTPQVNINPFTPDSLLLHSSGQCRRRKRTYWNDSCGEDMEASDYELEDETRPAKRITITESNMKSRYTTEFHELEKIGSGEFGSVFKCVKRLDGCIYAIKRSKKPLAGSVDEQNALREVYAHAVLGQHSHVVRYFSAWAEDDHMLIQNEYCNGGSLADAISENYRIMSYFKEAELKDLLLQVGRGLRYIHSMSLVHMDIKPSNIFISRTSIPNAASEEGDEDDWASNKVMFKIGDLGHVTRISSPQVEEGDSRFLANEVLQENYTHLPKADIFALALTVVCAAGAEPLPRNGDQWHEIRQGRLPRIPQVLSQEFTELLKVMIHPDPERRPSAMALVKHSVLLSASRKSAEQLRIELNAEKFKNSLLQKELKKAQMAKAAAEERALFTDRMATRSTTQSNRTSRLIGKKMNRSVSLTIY
T5 sequence (Q96SW2 whole entry): as the sequence (Q96SW2 whole entry) above
T5 sequence (Q16531 whole entry partner): as the sequence (Q16531 whole entry partner) above

GSPT1 = assay: as above; format: cell-based, Human
[1] = target: T6, human Cereblon WT GST-tagged protein (Homo sapiens, UniProt Q96SW2); assay: CRBN-binding affinity, HTRF (CEREBLON BINDING kit); settings: for inhibition at 0.5 µM: read-out: Inhibition Rate at 0.5 µM (%); for inhibition at 2 µM: read-out: Inhibition Rate at 2 µM (%)
T6 construct: purchased CISBIO 64BDCRBNPEH
T6 sequence (Q96SW2 whole entry): as the sequence (Q96SW2 whole entry) above

[2] = Western blot, 24 hours of compound treatment, compounds tested at 50 nM and 500 nM (concentration for the table not stated)
[3] = 24 hours treatment, compounds at 50 nM and 500 nM (concentration behind the class not stated)

T1 sequence (P48729 whole entry): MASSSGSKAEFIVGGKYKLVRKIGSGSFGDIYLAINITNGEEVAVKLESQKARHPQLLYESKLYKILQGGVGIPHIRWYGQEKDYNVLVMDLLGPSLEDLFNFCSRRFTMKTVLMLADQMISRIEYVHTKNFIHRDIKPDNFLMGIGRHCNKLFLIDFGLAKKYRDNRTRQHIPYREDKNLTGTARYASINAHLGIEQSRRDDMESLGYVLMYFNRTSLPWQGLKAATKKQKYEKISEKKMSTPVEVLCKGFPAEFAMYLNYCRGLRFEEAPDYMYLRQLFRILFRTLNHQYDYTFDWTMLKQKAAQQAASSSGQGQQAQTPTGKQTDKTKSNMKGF
T1 sequence (Q96SW2 whole entry): as the sequence (Q96SW2 whole entry) above
T1 sequence (Q16531 whole entry partner): as the sequence (Q16531 whole entry partner) above

| SMILES | CK1α substrate protein remaining % (CK1α; [2]) | IKZF 1 substrate protein remaining % (IKZF1; [2]) | IKZF2 substrate protein remaining % (IKZF2; [2]) | IKZF3 substrate protein remaining % (IKZF3; [2]) | Wee1 substrate protein remaining % (WEE1; [2]) | GSPT1 substrate protein remaining % (GSPT1; [2]) | inhibition at 0.5 µM [1] [%] | inhibition at 2 µM [1] [%] | CK1α substrate protein remaining % (CK1α; [3]) | IKZF 1 substrate protein remaining % (IKZF1; [3]) | IKZF2 substrate protein remaining % (IKZF2; [3]) | IKZF3 substrate protein remaining % (IKZF3; [3]) | Wee1 substrate protein remaining % (WEE1; [3]) | GSPT1 substrate protein remaining % (GSPT1; [3]) |
| --- | --- | --- | --- | --- | --- | --- | --- | --- | --- | --- | --- | --- | --- | --- |
| O=C1CCC(N2Cc3cc(CN4CCN(C(c5ccccc5)c5cccnc5)CC4)ccc3C2=S)C(=O)N1 (stereo not drawn) [GT-07732, 3-(5-((4-(phenyl(pyridin-3-yl)methyl)piperazin-1-yl)methyl)-1-thioxoisoindolin-2-yl)piperidine-2,6-dione] | B (80%< substrate protein remaining %≤ 100%) | B (80%< substrate protein remaining %≤ 100%) | B (80%< substrate protein remaining %≤ 100%) | A (0% ≤ substrate protein remaining % ≤ 80%) | A (0% ≤ substrate protein remaining % ≤ 80%) | A (0% ≤ substrate protein remaining % ≤ 80%) | 53 to 60 | 80 to 100 | – | – | – | – | – | – |
| O=C1CCC(N2Cc3c(CN4CCN(c5c(Cl)cncc5Cl)CC4)cccc3C2=S)C(=O)N1 (stereo not drawn) [GT-08805, 3-(4-((4-(3,5-dichloropyridin-4-yl)piperazin-1-yl)methyl)-1-thioxoisoindolin-2-yl)piperidine-2,6-dione] | B (80%< substrate protein remaining %≤ 100%) | B (80%< substrate protein remaining %≤ 100%) | B (80%< substrate protein remaining %≤ 100%) | B (80%< substrate protein remaining %≤ 100%) | A (0% ≤ substrate protein remaining % ≤ 80%) | B (80%< substrate protein remaining %≤ 100%) | 60 to 80 | 60 to 80 | – | – | – | – | – | – |
| Cc1ccc(Cl)cc1N1CCN(Cc2cccc3c2CN(C2CCC(=O)NC2=O)C3=S)CC1 (stereo not drawn) [GT-08505, 3-(4-((4-(5-chloro-2-methylphenyl)piperazin-1-yl)methyl)-1-thioxoisoindolin-2-yl)piperidine-2,6-dione] | B (80%< substrate protein remaining %≤ 100%) | B (80%< substrate protein remaining %≤ 100%) | B (80%< substrate protein remaining %≤ 100%) | A (0% ≤ substrate protein remaining % ≤ 80%) | A (0% ≤ substrate protein remaining % ≤ 80%) | B (80%< substrate protein remaining %≤ 100%) | 40 to 53 | 60 to 80 | – | – | – | – | – | – |
| Cc1csc2ncnc(C3=CCN(Cc4ccc5c(c4)CN(C4CCC(=O)NC4=O)C5=S)CC3)c12 (stereo not drawn) [GT-09315, 3-(5-((4-(5-methylthieno[2,3-d]pyrimidin-4-yl)-3,6-dihydropyridin-1(2H)-yl)methyl)-1-thioxoisoindolin-2-yl)piperidine-2,6-dione] | – | – | – | – | – | – | 60 to 80 | 80 to 100 | B (80%< substrate protein remaining %≤ 100%) | A (0% ≤ substrate protein remaining % ≤ 80%) | B (80%< substrate protein remaining %≤ 100%) | A (0% ≤ substrate protein remaining % ≤ 80%) | B (80%< substrate protein remaining %≤ 100%) | A (0% ≤ substrate protein remaining % ≤ 80%) |
| O=C1CCC(N2Cc3c(CN4CCC(N5CCCc6cc(F)ccc65)CC4)cccc3C2=S)C(=O)N1 (stereo not drawn) [GT-08851, 3-(4-((4-(6-fluoro-3,4-dihydroquinolin-1(2H)-yl)piperidin-1-yl)methyl)-1-thioxoisoindolin-2-yl)piperidine-2,6-dione] | B (80%< substrate protein remaining %≤ 100%) | B (80%< substrate protein remaining %≤ 100%) | B (80%< substrate protein remaining %≤ 100%) | B (80%< substrate protein remaining %≤ 100%) | A (0% ≤ substrate protein remaining % ≤ 80%) | A (0% ≤ substrate protein remaining % ≤ 80%) | 40 to 53 | 60 to 80 | – | – | – | – | – | – |
| O=C1CCC(N2Cc3cc(CN4CCN(C(c5ccccn5)c5ccccn5)CC4)ccc3C2=S)C(=O)N1 (stereo not drawn) [GT-07734, 3-(5-((4-(di(pyridin-2-yl)methyl)piperazin-1-yl)methyl)-1-thioxoisoindolin-2-yl)piperidine-2,6-dione] | B (80%< substrate protein remaining %≤ 100%) | B (80%< substrate protein remaining %≤ 100%) | B (80%< substrate protein remaining %≤ 100%) | A (0% ≤ substrate protein remaining % ≤ 80%) | A (0% ≤ substrate protein remaining % ≤ 80%) | A (0% ≤ substrate protein remaining % ≤ 80%) | 60 to 80 | 80 to 100 | – | – | – | – | – | – |
| O=C1CCC(N2Cc3cc(CN4CCC(c5ccnc(Cl)c5Cl)CC4)ccc3C2=S)C(=O)N1 (stereo not drawn) [GT-08475, 3-(5-((4-(2,3-dichloropyridin-4-yl)piperidin-1-yl)methyl)-1-thioxoisoindolin-2-yl)piperidine-2,6-dione] | B (80%< substrate protein remaining %≤ 100%) | B (80%< substrate protein remaining %≤ 100%) | B (80%< substrate protein remaining %≤ 100%) | B (80%< substrate protein remaining %≤ 100%) | B (80%< substrate protein remaining %≤ 100%) | A (0% ≤ substrate protein remaining % ≤ 80%) | 60 to 80 | 80 to 100 | – | – | – | – | – | – |
| Cc1sc2ncnc(C3=CCN(Cc4cccc5c4CN(C4CCC(=O)NC4=O)C5=S)CC3)c2c1C (stereo not drawn) [GT-08955, 3-(4-((4-(5,6-dimethylthieno[2,3-d]pyrimidin-4-yl)-3,6-dihydropyridin-1(2H)-yl)methyl)-1-thioxoisoindolin-2-yl)piperidine-2,6-dione] | – | – | – | – | – | – | 40 to 53 | 60 to 80 | B (80%< substrate protein remaining %≤ 100%) | B (80%< substrate protein remaining %≤ 100%) | B (80%< substrate protein remaining %≤ 100%) | B (80%< substrate protein remaining %≤ 100%) | A (0% ≤ substrate protein remaining % ≤ 80%) | B (80%< substrate protein remaining %≤ 100%) |
| O=C1CCC(N2Cc3c(CN4CCN(c5ccc(Cl)nn5)CC4)cccc3C2=S)C(=O)N1 (stereo not drawn) [GT-08811, 3-(4-((4-(6-chloropyridazin-3-yl)piperazin-1-yl)methyl)-1-thioxoisoindolin-2-yl)piperidine-2,6-dione] | A (0% ≤ substrate protein remaining % ≤ 80%) | A (0% ≤ substrate protein remaining % ≤ 80%) | A (0% ≤ substrate protein remaining % ≤ 80%) | A (0% ≤ substrate protein remaining % ≤ 80%) | A (0% ≤ substrate protein remaining % ≤ 80%) | A (0% ≤ substrate protein remaining % ≤ 80%) | 60 to 80 | 80 to 100 | – | – | – | – | – | – |
